Experiments:
[1] = molecular target: T1, Human Cav2.2 channels (Homo sapiens, UniProt Q00975); test: Fluorescent assay for Cav2.2 channels using potassium depolarization to initiate channel opening (Assay Example 1); format: cell-based; conditions: Table 2
T1 construct: expressed in transfected cells
Text: Fluorescent Assay for Cav2.2 Channels Using Potassium Depolarization to Initiate Channel Opening
(§1) Human Cav2.2 channels were stably expressed in KEK293 cells along with alpha2-delta and beta subunits of voltage-gated calcium channels. An inwardly rectifying potassium channel (Kir2.3) was also expressed in these cells to allow more precise control of the cell membrane potential by extracellular potassium concentration. At low bath potassium concentration, the membrane potential is relatively negative, and is depolarized as the bath potassium concentration is raised. In this way, the bath potassium concentration can be used to regulate the voltage-dependent conformations of the channels. […]
(§2) Calcium influx through Cav2.2 channels is determined using a calcium-sensitive fluorescent dye in combination with a fluorescent plate reader. Fluorescent changes were measured with either a VIPR (Aurora Instruments) or FLIPR (Molecular Devices) plate reader.
(§3) • 1. […] Read cell plate on VIPR instrument, Excitation=480 nm, Emission=535 nm • 9. With VIPR continuously reading, add 0.1 ml (96-well plate) or 0.03 ml (384-well plate) of Depolarization Buffer, which is 2× the final assay concentration, to the cell plate.

[2] = molecular target: T2, N-type calcium channel (CaV2.2) (Homo sapiens, UniProt Q00975); test: N-type calcium channel antagonist activity in the aforementioned assays (Assay Examples 1-3: fluorescent, IonWorks HT, PatchXpress/manual patch clamp); format: cell-based; conditions: antagonizing the N-type calcium channel; which of Assay Examples 1-3 is not specified
T2 construct: expressed in transfected cells
Text: as §1, §2, §3
Block of N-type calcium channels is evaluated utilizing the IonWorks HT 384 well automated patch clamp electrophysiology device. […]

T1 sequence (Q00975 whole entry): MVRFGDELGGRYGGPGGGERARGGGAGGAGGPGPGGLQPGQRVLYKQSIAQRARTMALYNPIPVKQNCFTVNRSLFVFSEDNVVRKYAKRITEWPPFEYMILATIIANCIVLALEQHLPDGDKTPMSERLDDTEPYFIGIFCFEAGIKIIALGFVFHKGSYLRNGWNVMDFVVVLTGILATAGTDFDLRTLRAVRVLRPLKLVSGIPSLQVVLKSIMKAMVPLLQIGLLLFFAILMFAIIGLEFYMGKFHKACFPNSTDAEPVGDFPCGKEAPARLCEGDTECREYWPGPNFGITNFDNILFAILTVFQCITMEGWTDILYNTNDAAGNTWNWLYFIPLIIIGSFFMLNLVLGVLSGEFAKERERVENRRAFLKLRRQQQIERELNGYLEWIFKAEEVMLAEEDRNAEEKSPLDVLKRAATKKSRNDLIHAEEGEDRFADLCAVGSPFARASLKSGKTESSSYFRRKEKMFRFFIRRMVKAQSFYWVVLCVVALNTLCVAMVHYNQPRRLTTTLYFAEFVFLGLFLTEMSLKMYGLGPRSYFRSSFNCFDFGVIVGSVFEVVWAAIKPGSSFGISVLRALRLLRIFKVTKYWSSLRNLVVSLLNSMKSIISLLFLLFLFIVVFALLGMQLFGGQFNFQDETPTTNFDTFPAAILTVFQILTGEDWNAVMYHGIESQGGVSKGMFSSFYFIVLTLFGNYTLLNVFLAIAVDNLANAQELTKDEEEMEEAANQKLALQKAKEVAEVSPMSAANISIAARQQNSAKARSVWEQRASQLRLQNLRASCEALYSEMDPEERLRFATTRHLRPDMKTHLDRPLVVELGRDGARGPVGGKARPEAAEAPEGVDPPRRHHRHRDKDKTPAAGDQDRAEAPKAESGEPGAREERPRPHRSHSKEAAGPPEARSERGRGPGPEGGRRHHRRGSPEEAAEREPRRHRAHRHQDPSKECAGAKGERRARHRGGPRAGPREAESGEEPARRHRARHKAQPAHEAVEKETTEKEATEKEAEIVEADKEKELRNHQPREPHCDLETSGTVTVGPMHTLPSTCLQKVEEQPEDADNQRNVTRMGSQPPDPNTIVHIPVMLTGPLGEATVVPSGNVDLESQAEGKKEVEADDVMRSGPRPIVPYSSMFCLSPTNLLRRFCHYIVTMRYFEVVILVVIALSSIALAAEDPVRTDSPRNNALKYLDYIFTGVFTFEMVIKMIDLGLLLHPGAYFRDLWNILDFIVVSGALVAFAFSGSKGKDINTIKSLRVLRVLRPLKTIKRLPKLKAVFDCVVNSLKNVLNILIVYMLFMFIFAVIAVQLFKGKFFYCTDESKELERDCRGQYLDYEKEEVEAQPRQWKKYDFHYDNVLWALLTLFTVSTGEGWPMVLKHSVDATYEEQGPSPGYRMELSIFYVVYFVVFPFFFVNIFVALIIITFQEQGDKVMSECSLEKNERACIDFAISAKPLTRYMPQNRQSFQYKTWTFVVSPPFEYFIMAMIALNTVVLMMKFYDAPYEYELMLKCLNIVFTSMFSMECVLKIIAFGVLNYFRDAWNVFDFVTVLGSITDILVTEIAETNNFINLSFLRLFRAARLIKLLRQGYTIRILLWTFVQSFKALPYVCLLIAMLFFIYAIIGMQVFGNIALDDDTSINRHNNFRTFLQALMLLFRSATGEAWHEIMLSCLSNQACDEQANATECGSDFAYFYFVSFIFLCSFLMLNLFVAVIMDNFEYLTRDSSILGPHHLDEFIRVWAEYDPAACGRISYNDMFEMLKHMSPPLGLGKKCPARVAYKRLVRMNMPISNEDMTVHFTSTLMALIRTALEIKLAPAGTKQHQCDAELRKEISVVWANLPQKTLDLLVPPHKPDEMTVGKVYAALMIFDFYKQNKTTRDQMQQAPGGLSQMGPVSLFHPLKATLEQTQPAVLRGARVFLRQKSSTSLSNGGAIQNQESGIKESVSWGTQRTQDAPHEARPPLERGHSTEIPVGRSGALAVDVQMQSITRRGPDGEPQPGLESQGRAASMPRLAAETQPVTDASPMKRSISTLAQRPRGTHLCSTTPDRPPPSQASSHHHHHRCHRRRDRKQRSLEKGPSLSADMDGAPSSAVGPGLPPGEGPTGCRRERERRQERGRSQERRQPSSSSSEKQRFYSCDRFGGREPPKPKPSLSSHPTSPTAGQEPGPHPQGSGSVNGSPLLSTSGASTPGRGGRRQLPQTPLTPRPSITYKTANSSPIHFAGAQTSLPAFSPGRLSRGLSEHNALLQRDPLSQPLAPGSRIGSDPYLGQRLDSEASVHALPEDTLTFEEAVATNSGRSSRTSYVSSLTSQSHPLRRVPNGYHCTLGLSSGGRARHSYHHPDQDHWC
T1 sequence (P54289 25-946 partner limits assumed): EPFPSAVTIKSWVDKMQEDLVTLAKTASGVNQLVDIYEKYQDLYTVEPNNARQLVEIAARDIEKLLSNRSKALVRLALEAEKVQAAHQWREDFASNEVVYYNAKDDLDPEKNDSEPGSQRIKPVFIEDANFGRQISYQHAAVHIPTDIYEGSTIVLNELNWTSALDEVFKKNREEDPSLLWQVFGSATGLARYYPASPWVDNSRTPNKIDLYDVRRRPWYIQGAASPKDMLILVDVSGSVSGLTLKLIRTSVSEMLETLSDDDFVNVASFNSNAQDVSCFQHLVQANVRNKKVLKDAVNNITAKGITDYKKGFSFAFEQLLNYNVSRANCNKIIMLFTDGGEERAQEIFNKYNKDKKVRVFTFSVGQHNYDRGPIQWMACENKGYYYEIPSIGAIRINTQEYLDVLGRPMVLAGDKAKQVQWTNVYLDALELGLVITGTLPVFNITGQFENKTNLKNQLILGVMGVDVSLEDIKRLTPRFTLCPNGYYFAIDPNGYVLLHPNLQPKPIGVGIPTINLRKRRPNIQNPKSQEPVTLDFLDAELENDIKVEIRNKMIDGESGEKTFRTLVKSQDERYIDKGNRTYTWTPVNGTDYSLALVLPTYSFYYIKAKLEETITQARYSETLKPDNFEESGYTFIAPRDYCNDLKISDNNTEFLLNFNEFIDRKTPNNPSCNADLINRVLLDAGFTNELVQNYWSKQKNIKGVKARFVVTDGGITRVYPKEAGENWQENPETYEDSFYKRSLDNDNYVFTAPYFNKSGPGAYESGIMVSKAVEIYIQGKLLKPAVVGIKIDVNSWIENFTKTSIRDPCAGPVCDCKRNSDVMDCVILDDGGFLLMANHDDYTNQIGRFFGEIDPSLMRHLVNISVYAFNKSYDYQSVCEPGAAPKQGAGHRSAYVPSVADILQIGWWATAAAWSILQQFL
T1 sequence (P54289 947-1103 partner limits assumed): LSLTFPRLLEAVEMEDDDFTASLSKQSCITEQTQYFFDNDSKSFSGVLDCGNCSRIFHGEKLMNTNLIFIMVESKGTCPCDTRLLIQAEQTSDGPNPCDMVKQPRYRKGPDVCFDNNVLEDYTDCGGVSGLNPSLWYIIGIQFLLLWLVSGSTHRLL
T1 sequence (P54284 whole entry partner): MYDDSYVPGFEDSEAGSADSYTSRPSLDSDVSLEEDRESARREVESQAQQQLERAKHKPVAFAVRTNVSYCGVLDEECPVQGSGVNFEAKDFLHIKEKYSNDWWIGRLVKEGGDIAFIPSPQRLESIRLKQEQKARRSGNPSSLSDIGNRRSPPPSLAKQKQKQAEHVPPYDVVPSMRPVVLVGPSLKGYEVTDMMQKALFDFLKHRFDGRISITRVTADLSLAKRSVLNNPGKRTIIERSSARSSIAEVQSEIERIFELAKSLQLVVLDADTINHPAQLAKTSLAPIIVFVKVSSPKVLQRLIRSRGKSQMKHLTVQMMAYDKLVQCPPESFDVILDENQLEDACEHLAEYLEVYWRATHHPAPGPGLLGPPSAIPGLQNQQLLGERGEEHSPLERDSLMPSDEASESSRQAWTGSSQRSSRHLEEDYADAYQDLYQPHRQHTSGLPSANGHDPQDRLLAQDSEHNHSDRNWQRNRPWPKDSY
T2 sequence (Q00975 whole entry): as the sequence (Q00975 whole entry) above
T2 sequence (P54289 25-946 partner limits assumed): as the sequence (P54289 25-946 partner limits assumed) above
T2 sequence (P54289 947-1103 partner limits assumed): as the sequence (P54289 947-1103 partner limits assumed) above
T2 sequence (P54284 whole entry partner): as the sequence (P54284 whole entry partner) above

| IC50 [1] | IC50 [2] | Structure (SMILES) |
| --- | --- | --- |
| 745 nM |  | CC(C)(C1CN(c2ccc(C(F)(F)F)cc2)C(=O)O1)S(=O)(=O)c1cccc(C(F)(F)F)c1 (stereo not drawn) |
|  | 1520 nM | CC(C)([C@H]1CN(c2ccc(C(F)(F)F)cn2)C(=O)CO1)S(=O)(=O)c1cccc(C(F)(F)F)c1 [Example 6, (6R)-6-(1-methyl-1-{[3-(trifluoromethyl)phenyl]sulfonyl}ethyl)-4-[5-(trifluoromethyl)pyridin-2-yl]morpholin-3-one] |
| 1510 nM |  | CC(C)([C@H]1CN(c2ccc(C(F)(F)F)cn2)C(=O)CO1)S(=O)(=O)c1cccc(C(F)(F)F)c1 [drawing 26] |

From US20110172223A1, “Substituted Aryl Sulfone Derivatives as Calcium Channel Blockers” (priority 2008, published 2011)
